How the values were obtained:
NHDF cells = assay: Labelling of NHDF cells with dyes alone and with EVs (Plexaris) labelled with dyes; assay type: cell-based, human; details: for extent of incorporation into cells versus dye 2 alone (FIG. 4(a)) / extent of incorporation into cells versus PLX+dye 2 (FIG. 4(b)): 0.2 μM; for extent of incorporation into cells versus dye 2 alone (FIG. 4(a)): normalised to dye 2; for extent of incorporation into cells versus PLX+dye 2 (FIG. 4(b)): dye with PLX, normalised to Plexaris+dye 2; for incorporation into NHDFs, Plexaris (PLX)+dye (FIG. 6): Example 9, 0.2 μM dye, 1 hr 37° C.
Protocol: (§1) Labelling of NHDF cells with dyes 11-18 alone and EVs labelled with dyes 11-18 was performed according to the following procedure. Each well of a Costar 96 well flat bottom plate was seeded with 5,000 normal human dermal fibroblasts (NHDF; not older than P9) and allowed to attach overnight in full media: fibroblast growth media (Lonza)+2% v/v fetal calf serum. Each dye was diluted in water to a final concentration of 1 mM. The dyes were then diluted to a final concentration of 2 μM in either a base formulation (1× PBS) or a sample of Plexaris (purified EVs derived from platelets) in 1× PBS and incubated at 1 hr at 37° C. The dyes were subsequently added onto the NHDFs at a further 1:10 dilution to a final concentration of 0.2 μM. Cells were incubated for 1 hr at 37° C. and then washed with 1× HBSS (Hank's balanced salt solution) to remove free dye. Plate was imaged using the CLARIOStar spectrophotometer (5×5 matrix mode, average of 25 data points, 3 wells for each dye). The data was normalised against either dye 2 or Plexaris+dye 2. A higher fluorescence indicates a higher amount of incorporation into the cells.
as §1, with “with” for “with dyes 11-18 alone and”, “4, 6, 17, 18, 23, 24 and 25” for “11-18”, “phosphate buffered saline (PBS)” for “water”, “in” for “in either a base formulation (1× PBS) or a sample of”, “in” for “in 1×”, “against” for “against either dye 2 or”

[1] = test system: normal human dermal fibroblasts (NHDF); assay: Labelling of human cells with dyes (plate fluorescence); assay type: cell-based; details: 2 μM dye, 1 hr 37° C., washed with HBSS; higher = more incorporation
Protocol: Labelling of human cells with dyes 1-10 was performed according to the following procedure. Each well of a Costar 96 well flat bottom plate was seeded with 5,000 normal human dermal fibroblasts (NHDF; not older than P9) and allowed to attach overnight in full media: fibroblast growth media (Lonza)+2% v/v fetal calf serum. Each dye was diluted 1:50 from a stock of 1 mM with 10 mM L-histidine, 150 mM NaCl, pH 6.0, to a final concentration of 20 μM. The dye was subsequently added to full media at a further 1:10 dilution to a final concentration of 2 μM. The media on the cells was subsequently replaced with the freshly prepared full media containing the dye. For negative controls, an equivalent volume of the diluent solution was added to the cell solution. Cells were incubated for 1 hr at 37° C. and then washed with 1 xHBSS (Hank's balanced salt solution) to remove free dye. Plate was imaged using the CLARIOStar spectrophotometer (5x5 matrix mode, average of 25 data points, 3 wells for each dye). A higher fluorescence indicates a higher amount of incorporation into the cells.

platelet-derived EVs = assay: Labelling of extracellular vesicles with dyes (Superose 6 HPLC, UV and FLD detection); details: EV + 2 μM dye; for FLD area (EV + dye): 1 hr 37° C., void peak area, 562 nm/583 nm (Ex/Em); for Area FLD/Area UV (EV + dye): higher ratio = greater incorporation
Protocol: Labelling of extracellular vesicles (EVs) with dyes 1-10 was performed according to the following procedure. 20 μL of platelet-derived EVs were incubated in HPLC vials with or without each dye at a final concentration of 2 μM dye, the dye stock solution being made up in water. For negative controls, an equivalent volume of the diluent solution was added to the EV solution. The sample was mixed gently. Each sample was subsequently incubated for 1 hr at 37° C. Samples were transferred and stored in the autosampler set at 4° C. A batch table was setup that injected unlabelled EVs prior to labelled EVs. A blank injection was run after each labelled EV experiment to ensure there was no carryover. 15 μL of each sample was injected onto a Superose 6 Increase column (3.2/300) from Cytiva. The flow rate was set at 0.15 mL min* The Shimadzu BioHPLC was run in isocratic mode with Buffer A: 1× PBS (phosphate-buffered saline), pH 7.4, 100 nm filtered. The column oven temperature was set at 30° C. Total run duration was 30 min. Data was collected using two detectors. The PDA (UV detector) was set to scan from 190-800 nm and a channel of the FLD (fluorescence detector) was set at 562 nm/583 nm (Ex/Em). Titration experiments were conducted to confirm that excess dye was removed. The areas of the void peaks from the 214 nm absorption and the 583 nm emission were calculated by the LabSolutions software using the manual integration function. To normalise the fluorescent signal, the total fluorescent area was divided by the UV 214 nm area. This ratio can be used to rank each dye, with higher ratios indicative of greater incorporation.

| SMILES | extent of incorporation into cells versus dye 2 alone (FIG. 4(a)) (NHDF cells) | extent of incorporation into cells versus PLX+dye 2 (FIG. 4(b)) (NHDF cells) | FLD [1] | FLD area (EV + dye) (platelet-derived EVs) | Area FLD/Area UV (EV + dye) (platelet-derived EVs) | incorporation into NHDFs, Plexaris (PLX)+dye (FIG. 6) (NHDF cells) |
| --- | --- | --- | --- | --- | --- | --- |
| CCCCCCCCCCCCCCCCCCN(CC)C(=O)c1ccccc1-c1c2ccc(=[N+](CC)CC)cc-2oc2cc(N(CC)CC)ccc12.[Cl-] [Dye 15, Rhodamine B N-ethyloctadecylamide] | incorporated to the cells to a larger extent | incorporated to the cells to a larger extent | – | – | – | – |
| CCCCCCCCCCCCCCCCCCN(CCC)C(=O)c1ccccc1-c1c2ccc(=[N+](CC)CC)cc-2oc2cc(N(CC)CC)ccc12.[Cl-] [Dye 14, Rhodamine B N-propyloctadecylamide] | incorporated to the cells to a larger extent | incorporated to the cells to a larger extent | – | – | – | – |
| CCCCCCCCCCCCCCCCCCCCN(C)C(=O)c1ccccc1-c1c2ccc(=[N+](CC)CC)cc-2oc2cc(N(CC)CC)ccc12.[Cl-] [Dye 3, Rhodamine B N-methylicosaneamide] | – | – | 43073 | 4270562 | 3.63 | – |
| CCCCCCCC/C=C/CCCCCCCCN(C)C(=O)c1ccccc1-c1c2cc/c(=[N+](/CC)CC(F)(F)F)cc-2oc2cc(N(CC)CC(F)(F)F)ccc12.[Cl-] [Dye 24] | – | – | – | – | – | found to incorporate into NHDFs |
| CCCCCCCCCCCCCCCCCCN(CCCCC)C(=O)c1ccccc1-c1c2ccc(=[N+](CC)CC)cc-2oc2cc(N(CC)CC)ccc12.[Cl-] [Dye 6, Rhodamine B N-pentyloctadecanamide] | – | – | 20270 | 4247970 | 2.36 | found to incorporate into NHDFs |
| CCCCCCCC/C=C\CCCCCCCCN(C)C(=O)c1ccccc1-c1c2ccc(=[N+](CC)CC)cc-2oc2cc(N(CC)CC)ccc12 [Dye 17, Rhodamine B N-methyloleylamide] | incorporated to the cells to a larger extent | incorporated to the cells to a larger extent | – | – | – | found to incorporate into NHDFs |
| CCCCCCCC/C=C\CCCCCCCCN(C)C(=O)c1ccccc1-c1c2cc/c(=[N+](/CC)CC(F)(F)F)cc-2oc2cc(N(CC)CC(F)(F)F)ccc12.[Cl-] [Dye 25, hexafluoro rhodamine B N-methyloleylamide] | – | – | – | – | – | found to incorporate into NHDFs |
| CCCCCCCCCCCCCCCCCCCCCCN(C)C(=O)c1ccccc1-c1c2ccc(=[N+](CC)CC)cc-2oc2cc(N(CC)CC)ccc12.[Cl-] [Dye 4] | – | – | 18027 | 1901680 | 2.08 | found to incorporate into NHDFs |
| CCCCCCCCCCCCCCCCCCN(CCO)C(=O)c1ccccc1-c1c2ccc(=[N+](CC)CC)cc-2oc2cc(N(CC)CC)ccc12.[Cl-] [Dye 9, Rhodamine B N-(2-hydroxyethyl)octadecanamide] | – | – | 83536 | 4558422 | 3.33 | – |
| CCCCCCCCCCCCCCCCCCCCN(CCOC)C(=O)c1ccccc1-c1c2ccc(=[N+](CC)CC)cc-2oc2cc(N(CC)CC)ccc12.[Cl-] [Dye 10, Rhodamine B N-ethyl methyl ether icosaneamide] | – | – | 45943 | 2826617 | 2.55 | – |
| CCCCCCCCCCCCCCCCN(CCOC)C(=O)c1ccccc1-c1c2ccc(=[N+](CC)CC)cc-2oc2cc(N(CC)CC)ccc12.[Cl-] [Dye 7, Rhodamine B N-ethyl methyl ether hexadecanamide] | – | – | 97347 | 1456410 | 1.38 | – |
| CCCCCCCCCCCCCCCCCCCN(C)C(=O)c1ccccc1-c1c2ccc(=[N+](CC)CC)cc-2oc2cc(N(CC)CC)ccc12.[Cl-] [Dye 12, Rhodamine B N-methylnonadecylamide] | incorporated to the cells to a larger extent | incorporated to the cells to a larger extent | – | – | – | – |
| CCCCCCCCCCCCCCCCCCN(CCOC)C(=O)c1ccccc1-c1c2ccc(=[N+](CC)CC)cc-2oc2cc(N(CC)CC)ccc12.[Cl-] [Dye 8, Rhodamine B N-ethyl methyl ether octadecanamide] | – | – | 83404 | 3422473 | 2.92 | – |
| CCCCCCCCCCCCCCCCCCN(C)C(=O)c1ccccc1-c1c2cc/c(=[N+](/CC)CC(F)(F)F)cc-2oc2cc(N(CC)CC(F)(F)F)ccc12.[Cl-] [Dye 23, hexafluoro Rhodamine B N-methyloctadecylamide] | – | – | – | – | – | found to incorporate into NHDFs |
| CCCCCCCCCCCCCCCCN(C)C(=O)c1ccccc1-c1c2ccc(=[N+](CC)CC)cc-2oc2cc(N(CC)CC)ccc12.[Cl-] [Dye 1, Rhodamine B N-methylhexadecylamide] | – | – | 120641 | 2281007 | 2.09 | – |
| CCCCCCCC/C=C/CCCCCCCCN(C)C(=O)c1ccccc1-c1c2ccc(=[N+](CC)CC)cc-2oc2cc(N(CC)CC)ccc12 [Dye 18, Rhodamine B N-methylelaidylamide] | incorporated to the cells to a larger extent | incorporated to the cells to a larger extent | – | – | – | found to incorporate into NHDFs |
| CCCCCCCCCCCCCCN(CCCCC)C(=O)c1ccccc1-c1c2ccc(=[N+](CC)CC)cc-2oc2cc(N(CC)CC)ccc12.[Cl-] [Dye 5, Rhodamine B N-pentyltetradecanamide] | – | – | 106332 | 2405326 | 1.25 | – |
